# Experimental data published in EP3048886B1, “3, 4-BIS-BENZYLSULFONYLBUTANENITRILE AND ITS PHARMACEUTICAL USE” (Olatec Therapeutics LLC, priority 2013, dated 2015).
# Assays:
# [1] = tested on: tail flick reaction to heat; assay: tail flick test (49°C water bath) in mice; conditions: mouse, in vivo
# Protocol: The tail flick test is a test of the pain response in animals. The tail flick test is used in basic pain research and to measure the effectiveness of analgesics, by observing the tail flick reaction to heat in an animal. This test assesses the nociceptive response to a local pain stimulus, and the ability of a drug to inhibit this response.
# Vehicle control (DMSO) and test compound 3,4-bis-benzylsulfonylbutanenitrile in DMSO were administered by oral gavage to mice with a volume of 5 mL/kg, immediately prior to testing, at time zero. The test compound was administered at a dosage of 500 mg/kg in DMSO. Positive control morphine in water was administered at time zero by subcutaneous injection at 8 mg/kg to mice. […] The purpose of morphine is not to serve as a comparison with the test compound. Each group had 10 mice.
# The response of mice to heat stimulus was evaluated by measuring the time of tail-flick or tail-flick latency from 49°C water bath. Briefly, the animal was held with its tail hanging down. Approximately 5.08 cm (2 inches) of the tail was immersed in a beaker of water at 38±1 °C for about 30 seconds, and this was done twice to acclimate the animal to the procedure.
# Subsequently, approximately 5.08 cm (2 inches) of the tail was immersed in a beaker of water at 49±1 °C, at which point a timer was started. […]
# [2] = tested on: arachidonic acid-induced ear swelling; assay: topical arachidonic acid-induced ear swelling model in mice; assay type: in vivo; conditions: inhibition of ear swelling vs vehicle, male ICR mice; topical application 30 min before and 15 min after arachidonic acid; measured at 90 minutes after arachidonic acid application
# Protocol: The test compound, indomethacin (positive control), and vehicle were evaluated for anti-inflammatory activity in a topical arachidonic acid-induced ear swelling model in mice.
# Male ICR mice weighing 22 ± 2 g were used and randomly divided; the test compound and vehicle control had 10 mice, and indomethacin had 5 mice. Arachidonic Acid (0.5 mg in 20 µl of acetone:ethanol/1:1) was applied topically to the anterior and posterior surfaces of the right ear of each mouse. Test substances and vehicle, as listed in Table 2 were similarly applied 30 min before and 15 min after arachidonic acid application. The thickness of the right ear and the left ear was measured and the difference calculated as an indication of the inflammation in the right ear. Ear swelling was measured by a Dyer model micrometer gauge at 60 and 90 minutes after arachidonic acid application as an index of inflammation. Percent inhibition was calculated according to the formula: Ic - It/Ic x 100, where Ic and It refers to increase of ear thickness (mm) in control and treated mice, respectively. ANOVA and Dunnett's test were employed to ascertain significant difference between vehicle control and treated groups. Significance is set at P<0.05 level.
SMILES,tail flick latency compared with vehicle-treated mice [1],% Inhibition [2] [%]
CN1CC[C@]23c4c5ccc(O)c4O[C@H]2[C@@H](O)C=C[C@H]3[C@H]1C5 [morphine],not,
"N#CCC(CS(=O)(=O)Cc1ccccc1)S(=O)(=O)Cc1ccccc1 (centres unmarked) [3,4-bis-benzylsulfonylbutanenitrile]",,34
